Reference: patent publication US10869899B2, “Isolated cells and populations comprising same for the treatment of CNS diseases” (Ramot at Tel-Aviv University Ltd., priority 2005, dated 2020)

System: differentiated hBMSc
Experiment: Effect of IL-1β and cabergoline on GDNF production and secretion (ELISA)
Type: cell-based, human
Details: cabergoline 130 pg/ml, IL-1β 100 pg/ml, added 24 hours after initiation of differentiation, 48 hours
Method: Astrocyte differentiation: To induce astrocyte differentiation, 1×10^6 cells were cultured in […]. Cells were replaced with pre-differentiation medium for 48 hours (DMEM supplemented with SPN, 2 mM L-glutamine, 20 ng/ml human epidermal growth factor hEGF (R& D, Systems, Minneapolis, Minn.), 20 ng/ml human basic fibroblast growth factor (hbFGF) and N2 supplement (insulin 5 μg/ml, progesterone 20 nM, putrescin 100 μM, selenium 30 nM, transferrin 100 μg/ml). After 48 hours, the pre-differentiation medium was changed to differentiation medium, (DMEM supplemented with SPN, 2 mM L-glutamine, 1 mM dibutyryl cyclic AMP dbcAMP, 0.5 mM isobutylmethylxanthine IBMX (Sigma-Aldrich, St. Louis, Mo., USA), 5 ng/ml human platelet derived growth factor PDGF (peprotech), and 50 ng/ml human neuregulin 1-β1 NRG1-β1-GGF-2). […]
GDNF and BDNF analysis: At the end of the differentiating procedure described above, supernatant was collected from the plate and cells were harvested and counted. The amount of GDNF or BDNF in the cell's lysate and culture supernatants was quantified by using a GDNF or BDNF ImmunoAssay System (Promega) according to the manufacture's protocol. The absorbance at 450 nm was recorded on the Microplate Reader (BioRad Model 550) and the values were used to produce the curve of the GDNF or BDNF standard. […] ELISA results were calculated according to 10^6 cells per plate.

Row | Compound | production and secretion of GDNF by differentiated cells following addition
1 | C=CCN1C[C@H](C(=O)N(CCCN(C)C)C(=O)NCC)C[C@@H]2c3cccc4[nH]cc(c34)C[C@H]21 [cabergoline] | marked enhanced production and secretion of GDNF
2 | IL-1beta: factor known to upregulate GDNF, added to the differentiation medium | marked enhanced production and secretion of GDNF
